Assay results taken from patent US20020035061A1, “COMPOSITIONS AND METHODS FOR TREATING INFECTIONS USING CATIONIC PEPTIDES ALONE OR IN COMBINATION WITH ANTIBIOTICS” (priority 1996, published 2002).

How the values were obtained:
[1] = test system: inherently resistant microorganisms; assay: microbe, parasite or virus in culture; format: cell-based
[2] = test system: microorganisms with acquired resistance; assay: microbe, parasite or virus in culture; format: cell-based; settings: for Peptide MIC: A. calcoaceticus, in µg/mL

Sequence: KWKSFIKKLTSAAKKVVTTAKPLISS [MBI 26]
- MBI 26 MIC + Erythro. ([1]; A. calcoaceticus AC001): 8 µg/mL
- MBI 26 MIC Alone ([1]; A. calcoaceticus AC001): 16 µg/mL
- MBI 26 MIC + Vancomycin ([1]; E. casseliflavus 97056 VanC): 1 µg/mL
- MBI 26 MIC Alone ([1]; E. casseliflavus 97056 VanC): 8 µg/mL
- MBI 26 MIC + Vancomycin ([1]; E. casseliflavus 97057 VanC): 0.5 µg/mL
- MBI 26 MIC Alone ([1]; E. casseliflavus 97057 VanC): 2 µg/mL
- MBI 26 MIC + Vancomycin ([1]; E. casseliflavus 97058 VanC): 0.25 µg/mL
- MBI 26 MIC Alone ([1]; E. casseliflavus 97058 VanC): 4 µg/mL
- MBI 26 MIC + Vancomycin ([1]; E. casseliflavus 97059 VanC): 0.5 µg/mL
- MBI 26 MIC Alone ([1]; E. casseliflavus 97059 VanC): 32 µg/mL
- MBI 26 MIC + Vancomycin ([1]; E. casseliflavus 97060 VanC): 0.25 µg/mL
- MBI 26 MIC Alone ([1]; E. casseliflavus 97060 VanC): 0.5 µg/mL
- Peptide MIC + Mupirocin ([1]; E. coli): 1 µg/mL
- Peptide MIC Alone ([1]; E. coli, Mupirocin section): 2 µg/mL
- MBI 26 MIC + Vancomycin ([1]; E. gallinarum 97044 VanC): 0.5 µg/mL
- MBI 26 MIC Alone ([1]; E. gallinarum 97044 VanC): 8 µg/mL
- MBI 26 MIC + Vancomycin ([1]; E. gallinarum 97046 VanC): 4 µg/mL
- MBI 26 MIC Alone ([1]; E. gallinarum 97046 VanC): 2 µg/mL
- MBI 26 MIC + Vancomycin ([1]; E. gallinarum 97047 VanC): 8 µg/mL
- MBI 26 MIC Alone ([1]; E. gallinarum 97047 VanC): 64 µg/mL
- MBI 26 MIC + Vancomycin ([1]; E. gallinarum 97048 VanC): 2 µg/mL
- MBI 26 MIC Alone ([1]; E. gallinarum 97048 VanC): 2 µg/mL
- MBI 26 MIC + Vancomycin ([1]; E. gallinarum 97049 VanC): 16 µg/mL
- MBI 26 MIC Alone ([1]; E. gallinarum 97049 VanC): 64 µg/mL
- MBI 26 MIC + Erythro. ([1]; K. pneumoniae KP001): 8 µg/mL
- MBI 26 MIC Alone ([1]; K. pneumoniae KP001): 16 µg/mL
- MBI 26 MIC + Erythro. ([1]; K. pneumoniae KP002): 32 µg/mL
- MBI 26 MIC Alone ([1]; K. pneumoniae KP002): 64 µg/mL
- MBI 26 MIC + Erythro. ([1]; P. aeruginosa PA041): 32 µg/mL
- MBI 26 MIC Alone ([1]; P. aeruginosa PA041): 64 µg/mL
- Peptide MIC Alone ([1]; P. aeruginosa, Ceftriaxone section): 128 µg/mL
- Peptide MIC + Piperacillin ([1]; S. aureus MRSA): 4 µg/mL
- Peptide MIC Alone ([1]; S. aureus MRSA, Piperacillin section): 32 µg/mL
- Peptide MIC + Ceftriaxone ([1]; S. maltophilia): 2 µg/mL
- Peptide MIC Alone ([1]; S. maltophilia, Ceftriaxone section): 8 µg/mL
- FIC ([1]; peptide + Amikacin, S. maltophilia): 0.19
- FIC ([1]; peptide + Ceftriaxone, S. maltophilia): 0.25
- FIC ([1]; peptide + Mupirocin, E. coli): 0.50
- FIC ([1]; peptide + Piperacillin, S. aureus MRSA): 0.13
- Gentamicin MIC + Peptide ([2]; A. baumannii ABI001): 4 µg/mL
- Peptide MIC + Gentamicin ([2]; A. baumannii ABI001): 4 µg/mL
- Peptide MIC Alone ([2]; A. baumannii ABI001, Gentamicin section): 8 µg/mL
- Gentamicin MIC + Peptide ([2]; A. baumannii ABI002): 0.5 µg/mL
- Peptide MIC + Gentamicin ([2]; A. baumannii ABI002): 4 µg/mL
- Peptide MIC Alone ([2]; A. baumannii ABI002, Gentamicin section): 8 µg/mL
- Ceftriaxone MIC + Peptide ([2]; A. baumannii ABI005): 0.5 µg/mL
- Peptide MIC + Ceftriaxone ([2]; A. baumannii ABI005): 1 µg/mL
- Peptide MIC Alone ([2]; A. baumannii ABI005, Ceftriaxone section): 2 µg/mL
- Ceftriaxone MIC + Peptide ([2]; A. baumannii ABI006): 8 µg/mL
- Peptide MIC + Ceftriaxone ([2]; A. baumannii ABI006): 1 µg/mL
- Peptide MIC Alone ([2]; A. baumannii ABI006, Ceftriaxone section): 2 µg/mL
- Peptide MIC + Piperacillin ([2]; A. calcoaceticus 2): 16 µg/mL
- Piperacillin MIC + Peptide ([2]; A. calcoaceticus 2): 4 µg/mL
- Peptide MIC Alone ([2]; A. calcoaceticus 2, Piperacillin section): 32 µg/mL
- Ciprofloxacin MIC + Peptide ([2]; A. calcoaceticus 5): 0.25 µg/mL
- Peptide MIC + Ciprofloxacin ([2]; A. calcoaceticus 5): 16 µg/mL
- Peptide MIC Alone ([2]; A. calcoaceticus 5, Ciprofloxacin section): >32 µg/mL
- Peptide MIC + Piperacillin ([2]; A. calcoaceticus 7): 8 µg/mL
- Piperacillin MIC + Peptide ([2]; A. calcoaceticus 7): 4 µg/mL
- Peptide MIC Alone ([2]; A. calcoaceticus 7, Piperacillin section): >32 µg/mL
- Peptide MIC ([2]; combination with Ceftazidime): 32
- Peptide MIC ([2]; combination with Ciprofloxacin): 4
- Ceftriaxone MIC + Peptide ([2]; B. cepacia BC003): 8 µg/mL
- Peptide MIC + Ceftriaxone ([2]; B. cepacia BC003): 0.125 µg/mL
- Peptide MIC Alone ([2]; B. cepacia BC003, Ceftriaxone section): >128 µg/mL
- Peptide MIC + Piperacillin ([2]; E. cloacae 13): 8 µg/mL
- Piperacillin MIC + Peptide ([2]; E. cloacae 13): 4 µg/mL
- Peptide MIC Alone ([2]; E. cloacae 13, Piperacillin section): >32 µg/mL
- Ciprofloxacin MIC + Peptide ([2]; E. cloacae 16): 0.25 µg/mL
- Peptide MIC + Ciprofloxacin ([2]; E. cloacae 16): 16 µg/mL
- Peptide MIC Alone ([2]; E. cloacae 16, Ciprofloxacin section): >32 µg/mL
- Ciprofloxacin MIC + Peptide ([2]; E. cloacae 17): 0.25 µg/mL
- Peptide MIC + Ciprofloxacin ([2]; E. cloacae 17): 16 µg/mL
- Peptide MIC Alone ([2]; E. cloacae 17, Ciprofloxacin section): >32 µg/mL
- Peptide MIC + Piperacillin ([2]; E. cloacae 19): 16 µg/mL
- Piperacillin MIC + Peptide ([2]; E. cloacae 19): 4 µg/mL
- Peptide MIC Alone ([2]; E. cloacae 19, Piperacillin section): >32 µg/mL
- Ceftriaxone MIC + Peptide ([2]; E. cloacae ECL015): 4 µg/mL
- Peptide MIC + Ceftriaxone ([2]; E. cloacae ECL015): 4 µg/mL
- Peptide MIC Alone ([2]; E. cloacae ECL015, Ceftriaxone section): 32 µg/mL
- Peptide MIC + Piperacillin ([2]; H. influenzae 1): 32 µg/mL
- Piperacillin MIC + Peptide ([2]; H. influenzae 1): 4 µg/mL
- Peptide MIC Alone ([2]; H. influenzae 1, Piperacillin section): >128 µg/mL
- Peptide MIC + Piperacillin ([2]; H. influenzae 2): 16 µg/mL
- Piperacillin MIC + Peptide ([2]; H. influenzae 2): 16 µg/mL
- Peptide MIC Alone ([2]; H. influenzae 2, Piperacillin section): >128 µg/mL
- Peptide MIC + Piperacillin ([2]; P. aeruginosa 7): 32 µg/mL
- Piperacillin MIC + Peptide ([2]; P. aeruginosa 7): 32 µg/mL
- Peptide MIC Alone ([2]; P. aeruginosa 7, Piperacillin section): >128 µg/mL
- Peptide MIC + Piperacillin ([2]; P. aeruginosa 23): 32 µg/mL
- Piperacillin MIC + Peptide ([2]; P. aeruginosa 23): 4 µg/mL
- Peptide MIC Alone ([2]; P. aeruginosa 23, Piperacillin section): >64 µg/mL
- Peptide MIC + Piperacillin ([2]; P. aeruginosa 26): 32 µg/mL
- Piperacillin MIC + Peptide ([2]; P. aeruginosa 26): 8 µg/mL
- Peptide MIC Alone ([2]; P. aeruginosa 26, Piperacillin section): >32 µg/mL
- Ciprofloxacin MIC + Peptide ([2]; P. aeruginosa 30): 0.25 µg/mL
- Peptide MIC + Ciprofloxacin ([2]; P. aeruginosa 30): 2 µg/mL
- Peptide MIC Alone ([2]; P. aeruginosa 30, Ciprofloxacin section): >32 µg/mL
- Ciprofloxacin MIC + Peptide ([2]; P. aeruginosa 31): 0.25 µg/mL
- Peptide MIC + Ciprofloxacin ([2]; P. aeruginosa 31): 16 µg/mL
- Peptide MIC Alone ([2]; P. aeruginosa 31, Ciprofloxacin section): >32 µg/mL
- Gentamicin MIC + Peptide ([2]; P. aeruginosa PA023): 4 µg/mL
- Peptide MIC + Gentamicin ([2]; P. aeruginosa PA023): 64 µg/mL
- Peptide MIC Alone ([2]; P. aeruginosa PA023, Gentamicin section): >128 µg/mL
- Peptide MIC + Tobramycin ([2]; P. aeruginosa PA031): 16 µg/mL
- Tobramycin MIC + Peptide ([2]; P. aeruginosa PA031): 4 µg/mL
- Peptide MIC Alone ([2]; P. aeruginosa PA031, Tobramycin section): 32 µg/mL
- Gentamicin MIC + Peptide ([2]; P. aeruginosa PA041): 4 µg/mL
- Peptide MIC + Gentamicin ([2]; P. aeruginosa PA041): 16 µg/mL
- Ciprofloxacin MIC + Peptide ([2]; P. aeruginosa PA41): 1 µg/mL
- Peptide MIC + Ciprofloxacin ([2]; P. aeruginosa PA41): 32 µg/mL
- Peptide MIC Alone ([2]; P. aeruginosa PA41, Ciprofloxacin section): 128 µg/mL
- Peptide MIC Alone ([2]; P. aeruginosa PA041, Gentamicin section): 64 µg/mL
- Ciprofloxacin MIC + Peptide ([2]; P. aeruginosa PA77): 0.125 µg/mL
- Peptide MIC + Ciprofloxacin ([2]; P. aeruginosa PA77): 64 µg/mL
